Results reported in patent publication US20220184015A1, “COMPOSITIONS AND METHODS TO POTENTIATE MUSCULOSKELETAL EFFECT OF ONE OR MORE ANABOLIC AMINO ACIDS ON BONE HEALTH” (SOCIETE DES PRODUITS NESTLE S.A., priority 2019, published 2022).

Columns and labels:
Type in all cases: in vivo
[1] = system: LC3 protein fused to ZsGreen under the control of a skeletal muscle specific promoter; assay: zebrafish autophagy reporter, number of LC3 punctae in larvae; conditions: for autophagy activation by individual amino acids (FIG. 1) / autophagy activation by individual amino acids (FIG. 3) / autophagy activation by individual amino acids (FIG. 2): zebrafish larvae, 0.25 to 10 mM, 16 hours of treatment; for effect on basal autophagy: summary statement referring to the experimental data
From the text: Z stack images were captured for each larva and maximal projection images were produced. Number of LC3 punctae have been calculated with MetaXpress software (Moleculare Devices) and normalized by fish area.

bone mineral density = bone mineral density in old mice after 3 months; conditions: old mice (78 weeks old), thymol by gavage, AA mix in water, FIG. 6a
From the text: (§1) Assessment of the long term (3 months) effect of thymol (an exemplary autophagy-inducing agent) and an amino acid mix, known as autophagy inducers, alone or in combination, on muscle function in old mice. […] Old mice (78 weeks old; n=12/group; inventions) were taking 1) thymol (compound 1); 2) an amino acid (AA) mix and thymol (compounds 2 and 1); or 3) the AA mix (compound 2). In the experiments, thymol was given by gavage; the AA mix was given in water; and alanine for isonitrogenous was given as a control to young mice (Adult). Old untreated mice were also used as another control (old untreated). The AA mix comprises 28.67% of Leucine, 14.29% of Isoleucine, 14.29% of Valine, 12.21% of Proline, 12.21% of Glycine, 14.84% of Lysine and 3.48% of Cysteine (See Table 1).

bone stiffness = bone stiffness (bone strength) in old mice after 3 months; conditions: old mice (78 weeks old), thymol by gavage, AA mix in water, FIG. 6b
From the text: as §1

## O=C(O)[C@@H]1CCCN1 [Proline]
[1]
  autophagy activation by individual amino acids (FIG. 1): show at least some autophagy activation effects
  autophagy activation by individual amino acids (FIG. 3): show clear autophagy activation effects

## Cc1ccc(C(C)C)c(O)c1 [thymol]
Bone mineral density
  increase in bone mineral density as compared with the control of the old untreated: 1.6%
Bone stiffness
  increase in bone stiffness as compared with the control of the old untreated: 12%

## CC[C@H](C)[C@H](N)C(=O)O [Isoleucine]
[1]
  effect on basal autophagy: reduce basal autophagy

## CC(C)[C@H](N)C(=O)O [Valine]
[1]
  autophagy activation by individual amino acids (FIG. 1): show at least some autophagy activation effects
  autophagy activation by individual amino acids (FIG. 2): show autophagy activation effects

## N[C@@H](CCC(=O)O)C(=O)O [Glutamate]
[1]
  autophagy activation by individual amino acids (FIG. 1): show at least some autophagy activation effects
  autophagy activation by individual amino acids (FIG. 3): show clear autophagy activation effects

## N[C@@H](Cc1ccc(O)cc1)C(=O)O [Tyrosine]
[1]
  autophagy activation by individual amino acids (FIG. 1): show at least some autophagy activation effects

## NC(=O)C[C@H](N)C(=O)O [Asparagine]
[1]
  autophagy activation by individual amino acids (FIG. 1): show at least some autophagy activation effects

## N[C@@H](Cc1ccccc1)C(=O)O [Phenylalanine]
[1]
  autophagy activation by individual amino acids (FIG. 1): show at least some autophagy activation effects

## CC(C)C[C@H](N)C(=O)O [Leucine]
[1]
  effect on basal autophagy: reduce basal autophagy
  autophagy activation by individual amino acids (FIG. 2): does not show any autophagy activation effect

## N[C@@H](CS)C(=O)O [Cysteine]
[1]
  autophagy activation by individual amino acids (FIG. 1): show at least some autophagy activation effects
  autophagy activation by individual amino acids (FIG. 2): show autophagy activation effects

## N=C(N)NCCC[C@H](N)C(=O)O [Arginine]
[1]
  effect on basal autophagy: reduce basal autophagy
  autophagy activation by individual amino acids (FIG. 1): show at least some autophagy activation effects
  autophagy activation by individual amino acids (FIG. 3): shows less autophagy activation effects

## NCC(=O)O [Glycine]
[1]
  autophagy activation by individual amino acids (FIG. 1): show at least some autophagy activation effects
  autophagy activation by individual amino acids (FIG. 2): show autophagy activation effects

## NC(=O)CC[C@H](N)C(=O)O [Glutamine]
[1]
  effect on basal autophagy: reduce basal autophagy
